Results on 25 compounds are retold here after patent publication US10233179B2, “Thiazoles and uses thereof” (AbbVie Inc., priority 2013, dated 2019).

In one series the test system is HEp-2 cells. Description: Cytotoxicity assay (MTT) in parallel with the antiviral assay. The class given is cell-based. On the procedure: HEp-2 cells and RSV (Group A, Long Strain) were obtained from the American Type Culture Collection (Manassas, Va.). Cytotoxicity of the compounds was determined in experiments done in parallel with the antiviral assays. To do this, 100 μL of assay medium was added to the wells of HEp-2 cells pretreated with 100 μL serially diluted compounds as described above. After 4 days of incubation, the viability of the cells was determined by the MTT assay in the same way as detailed in the “Antiviral Assay” method. Results were expressed as 50% toxicity dose (TD50) values. Compounds were tested to determine both their antiviral and toxicity to determine their therapeutic window. Determination of the EC50 and TD50 of these active compounds were repeated one additional time to confirm the window.

In series [1] the test system is RSV (Group A, Long Strain). Description: Antiviral cytopathic effect (CPE) protection assay, MTT readout. The following applies: human respiratory syncytial virus, 96 h; HEp-2 cells, 0.2 MOI RSV, 4 days incubation, protection from CPE by MTT. It is filed as cell-based. As to the method: HEp-2 cells and RSV (Group A, Long Strain) were obtained from the American Type Culture Collection (Manassas, Va.).
A cytopathic effect (CPE) protection assay was performed to determine the ability of a compound to protect the cells from viral infection and thus the CPE induced by viral infection. 96-Well plates were first seeded with 3×10^3 HEp-2 cells per well in Dulbecco's modified Eagle's medium (DMEM) containing 10% fetal bovine serum (FBS). One day after the cells were seeded, they were preincubated with serial dilutions of compounds prepared in 100 μL assay medium (DMEM mixed with F12 medium at a 1:1 ratio, supplemented with 2% FBS and 1 mM sodium pyruvate) for 1 hour at 37° C. 100 μL of assay medium containing 0.2 multiplicity of infection (MOI) of RSV was then added to each well of cells. In addition to wells containing infected cells incubated with compounds, each plate also contained replicates of two kinds of controls: (1) Virus control contained cells infected with 0.2 MOI of RSV in assay medium, (2) Uninfected cell control contained cells incubated with assay medium only. After 4 days of incubation at 37° C., the viability of cells was assessed using MTT (Thiazolyl blue tetrazolium bromide, Sigma). A stock solution of MTT, at a concentration of 4 mg/mL in phosphate-buffered saline, was added to all wells at 25 μL per well. Plates were further incubated for 4 hours, and each well was then treated with 50 μL of a solution containing 20% sodium dodecyl sulfate (SDS) and 0.02 N HCl. After an overnight incubation, the plates were measured on a BioTek® microtiter plate reader at wavelengths of 570 nm and 650 nm. The MTT detection is based on the fact that viable (uninfected) cells can reduce the tetrazolium salts into colored formazan products, which can then be quantitated by spectrometry. Based on the spectrometric absorbance of each sample, the percent of protection from CPE, which is an indicator of protection from viral infection, can be calculated for each compound and the 50% effective concentrations (EC50) can be calculated using a nonlinear regression curve fitting equation provided by the GraphPad Prism® 4 software.
Compounds were tested to determine both their antiviral and toxicity to determine their therapeutic window. Determination of the EC50 and TD50 of these active compounds were repeated one additional time to confirm the window.
In general terms: Protection from cytopathic effect is a common read-out in antiviral testing.

[2] abbreviates: uninfected HEp-2 cells, 4 days incubation, MTT viability.

Structures are written as SMILES.

Usually EC50 stands for the concentration that produces a half-maximal response. Low readings indicate higher potency in that assay, high ones lower potency in that assay. Regarding `Cc1ccccc1CN(Cc1cccn1-c1nncs1)Cc1cccn1-c1nncs1` [Example 12, 1-(2-methylphenyl)-N,N-bis{[1-(1,3,4-thiadiazol-2-yl)-1H-pyrrol-2-yl]methyl}methanamine], the “MTT TD50” value in the series with HEp-2 cells (setting [2]) was over 10 µM. The same compound showed an EC50 in series [1] of 64 nM.

Regarding `C[C@H](c1ccc(F)cc1)N(Cc1cccn1-c1nncs1)Cc1cccn1-c1nncs1` [Example 13, (1R)-1-(4-fluorophenyl)-N,N-bis{[1-(1,3,4-thiadiazol-2-yl)-1H-pyrrol-2-yl]methyl}ethanamine], in the series on HEp-2 cells (setting [2]), the “MTT TD50” value was 93 µM. Moreover, in series [1], it took 14000 nM to reach a half-maximal effect (EC50).

As for `Clc1cnc(CN(Cc2cccn2-c2nncs2)Cc2cccn2-c2nncs2)c(Cl)c1` [Example 14, 1-(3,5-dichloropyridin-2-yl)-N,N-bis{[1-(1,3,4-thiadiazol-2-yl)-1H-pyrrol-2-yl]methyl}methanamine], the “MTT TD50” value with HEp-2 cells (setting [2]) was determined as 90 µM. This compound returned an EC50 in series [1] of 4800 nM.

As to `Fc1ccccc1CN(Cc1cccn1-c1nncs1)Cc1cccn1-c1nncs1` [Example 15, 1-(2-fluorophenyl)-N,N-bis{[1-(1,3,4-thiadiazol-2-yl)-1H-pyrrol-2-yl]methyl}methanamine], the “MTT TD50” value in the series with HEp-2 cells (setting [2]) was found to be 67 µM. This compound also came in with an EC50 in series [1] of 120 nM.

For `FC(F)(F)c1cccc(CN(Cc2cccn2-c2nncs2)Cc2cccn2-c2nncs2)c1` [Example 16, 1-[1-(1,3,4-thiadiazol-2-yl)-1H-pyrrol-2-yl]-N-{[1-(1,3,4-thiadiazol-2-yl)-1H-pyrrol-2-yl]methyl}-N-[3-(trifluoromethyl)benzyl]methanamine], the “MTT TD50” value in the series on HEp-2 cells (setting [2]) came to 30 µM. In series [1], this compound displayed an EC50 of 2100 nM.

Take `CC(c1ccc(Cl)c(Cl)c1)N(Cc1cccn1-c1nncs1)Cc1cccn1-c1nncs1` (centres unmarked) [Example 17, 1-(3,4-dichlorophenyl)-N,N-bis{[1-(1,3,4-thiadiazol-2-yl)-1H-pyrrol-2-yl]methyl}ethanamine]: in the series with HEp-2 cells (setting [2]), the “MTT TD50” value is over 32 µM. This compound also came in with an EC50 in series [1] of 15000 nM.

In the case of `Clc1ccccc1CN(Cc1cccn1-c1nncs1)Cc1cccn1-c1nncs1` [Example 18, 1-(2-chlorophenyl)-N,N-bis{[1-(1,3,4-thiadiazol-2-yl)-1H-pyrrol-2-yl]methyl}methanamine], the “MTT TD50” value in the series on HEp-2 cells (setting [2]) is over 32 µM. The compound also gave an EC50 in series [1] of 62 nM.

With `C[C@H](c1ccccc1Cl)N(Cc1cccn1-c1nncs1)Cc1cccn1-c1nncs1` [Example 19, (1R)-1-(2-chlorophenyl)-N,N-bis{[1-(1,3,4-thiadiazol-2-yl)-1H-pyrrol-2-yl]methyl}ethanamine], the “MTT TD50” value in the series with HEp-2 cells (setting [2]) is over 32 µM. For the same compound, the response in series [1] was half-maximal at 2800 nM (EC50).

Turning to `C[C@@H](c1ccccc1Cl)N(Cc1cccn1-c1nncs1)Cc1cccn1-c1nncs1` [Example 20, (1S)-1-(2-chlorophenyl)-N,N-bis{[1-(1,3,4-thiadiazol-2-yl)-1H-pyrrol-2-yl]methyl}ethanamine], the “MTT TD50” value with HEp-2 cells (setting [2]) was over 32 µM. Further, in series [1], the EC50 was found to be 360 nM.

For the compound `c1ccc(C2(CCN(Cc3cccn3-c3nncs3)Cc3cccn3-c3nncs3)CC2)nc1` [Example 21, 2-[1-(pyridin-2-yl)cyclopropyl]-N,N-bis{[1-(1,3,4-thiadiazol-2-yl)-1H-pyrrol-2-yl]methyl}ethanamine], the “MTT TD50” value in the series with HEp-2 cells (setting [2]) was over 32 µM. The EC50 in series [1] was 62 nM.

Regarding `c1ccc(N(Cc2cccn2-c2nncs2)Cc2cccn2-c2nncs2)cc1` [Example 22, N,N-bis{[1-(1,3,4-thiadiazol-2-yl)-1H-pyrrol-2-yl]methyl}aniline], the “MTT TD50” value in the series on HEp-2 cells (setting [2]) was over 32 µM. The same compound displayed an EC50 in series [1] of 28000 nM.

In the case of `FC1(F)CCC(CN(Cc2cccn2-c2nncs2)Cc2cccn2-c2nncs2)CC1` [Example 23, 1-(4,4-difluorocyclohexyl)-N,N-bis{[1-(1,3,4-thiadiazol-2-yl)-1H-pyrrol-2-yl]methyl}methanamine], the “MTT TD50” value in the series with HEp-2 cells (setting [2]) is over 100 µM. Moreover, in series [1], the EC50 was found to be 2400 nM.

Turning to `c1cncc(C2(CCN(Cc3cccn3-c3nncs3)Cc3cccn3-c3nncs3)CC2)c1` [Example 24, 2-[1-(pyridin-3-yl)cyclopropyl]-N,N-bis{[1-(1,3,4-thiadiazol-2-yl)-1H-pyrrol-2-yl]methyl}ethanamine], the “MTT TD50” value in the series with HEp-2 cells (setting [2]) was over 100 µM. In addition, a half-maximal effect in series [1] (EC50) was put at 2900 nM.

As for `CC(Cc1cccs1)N(Cc1cccn1-c1nncs1)Cc1cccn1-c1nncs1` (centres unmarked) [Example 25, N,N-bis{[1-(1,3,4-thiadiazol-2-yl)-1H-pyrrol-2-yl]methyl}-1-(thiophen-2-yl)propan-2-amine], the “MTT TD50” value in the series with HEp-2 cells (human, 4 days) worked out at 55 µM. Further, the EC50 in series [1] is 7500 nM.

In the case of `c1cncc(C2(CN(Cc3cccn3-c3nncs3)Cc3cccn3-c3nncs3)CC2)c1` [Example 26, 1-[1-(pyridin-3-yl)cyclopropyl]-N,N-bis{[1-(1,3,4-thiadiazol-2-yl)-1H-pyrrol-2-yl]methyl}methanamine], in the series on HEp-2 cells (setting [2]), the “MTT TD50” value is over 100 µM. In series [1], this compound had an EC50 of 1100 nM.

With `c1cc(CN(CCC2(c3ccncc3)CC2)Cc2cccn2-c2nncs2)n(-c2nncs2)c1` [Example 27, 2-[1-(pyridin-4-yl)cyclopropyl]-N,N-bis{[1-(1,3,4-thiadiazol-2-yl)-1H-pyrrol-2-yl]methyl}ethanamine], the “MTT TD50” value in the series on HEp-2 cells (human, 4 days) was over 32 µM. For the same compound, the EC50 in series [1] was 810 nM.

`N#Cc1cc(CN(Cc2cccn2-c2nncs2)Cc2cccn2-c2nncs2)cs1` [Example 28, 4-[(bis{[1-(1,3,4-thiadiazol-2-yl)-1H-pyrrol-2-yl]methyl}amino)methyl]thiophene-2-carbonitrile]: the “MTT TD50” value in the series on HEp-2 cells (setting [2]) is over 100 µM. In series [1], a half-maximal effect (EC50) was put at 760 nM.

Turning to `Clc1ccc(CN(Cc2cccn2-c2nccs2)Cc2cccn2-c2nccs2)c(Cl)c1` [Example 29, 1-(2,4-dichlorophenyl)-N,N-bis{[1-(1,3-thiazol-2-yl)-1H-pyrrol-2-yl]methyl}methanamine], in the series on HEp-2 cells (setting [2]), the “MTT TD50” value is over 32 µM. In series [1], this compound displayed an EC50 of 320 nM.

As for `COc1ccc(CN(Cc2cccn2-c2nccs2)Cc2cccn2-c2nccs2)c(OC)c1` [Example 30, 1-(2,4-dimethoxyphenyl)-N,N-bis{[1-(1,3-thiazol-2-yl)-1H-pyrrol-2-yl]methyl}methanamine], the “MTT TD50” value in the series on HEp-2 cells (setting [2]) was determined as 4.9 µM. In series [1], this compound came in with an EC50 of 54 nM.

For the compound `c1ccc(CN(Cc2cccn2-c2nccs2)Cc2cccn2-c2nccs2)cc1` [Example 31, 1-phenyl-N,N-bis{[1-(1,3-thiazol-2-yl)-1H-pyrrol-2-yl]methyl}methanamine], the “MTT TD50” value in the series with HEp-2 cells (setting [2]) worked out at 5.4 µM. In addition, a half-maximal response in series [1] (EC50) required 110 nM.

With `c1cc(CN(Cc2cccn2-c2nccs2)CC2C[C@H]3CC[C@@H]2C3)n(-c2nccs2)c1` (stereo partly drawn) [Example 32, 1-[(1R,4S)-bicyclo[2.2.1]hept-2-yl]-N,N-bis{[1-(1,3-thiazol-2-yl)-1H-pyrrol-2-yl]methyl}methanamine], in the series on HEp-2 cells (setting [2]), the “MTT TD50” value stood at 4.1 µM. The compound further showed a 50% effective concentration (EC50) in series [1] of 410 nM.

Turning to `c1cc(CN(Cc2cccn2-c2nccs2)CC2CCCO2)n(-c2nccs2)c1` (centres unmarked) [Example 33, 1-(tetrahydrofuran-2-yl)-N,N-bis{[1-(1,3-thiazol-2-yl)-1H-pyrrol-2-yl]methyl}methanamine], the “MTT TD50” value in the series on HEp-2 cells (setting [2]) was 16 µM. This compound gave an EC50 in series [1] of 4600 nM.

As to `FC(F)(F)c1ccc(CN(Cc2cccn2-c2nccs2)Cc2cccn2-c2nccs2)cc1` [Example 34, 1-[1-(1,3-thiazol-2-yl)-1H-pyrrol-2-yl]-N-{[1-(1,3-thiazol-2-yl)-1H-pyrrol-2-yl]methyl}-N-[4-(trifluoromethyl)benzyl]methanamine], the “MTT TD50” value in the series with HEp-2 cells (setting [2]) was determined as 34 µM. A half-maximal response in series [1] (EC50) required 3400 nM.

As for `Cc1cc(N(Cc2cccn2-c2nccs2)Cc2cccn2-c2nccs2)n(-c2ccccc2)n1` [Example 35, 3-methyl-1-phenyl-N,N-bis{[1-(1,3-thiazol-2-yl)-1H-pyrrol-2-yl]methyl}-1H-pyrazol-5-amine], the “MTT TD50” value with HEp-2 cells (setting [2]) was over 32 µM. Also, the concentration for a half-maximal effect (EC50) in series [1] was determined as 47 nM.

Regarding `Clc1cccc(Cl)c1CN(Cc1cccn1-c1nccs1)Cc1cccn1-c1nccs1` [Example 36, 1-(2,6-dichlorophenyl)-N,N-bis{[1-(1,3-thiazol-2-yl)-1H-pyrrol-2-yl]methyl}methanamine], the “MTT TD50” value with HEp-2 cells (setting [2]) came to 24 µM. In series [1], this compound registered a concentration giving a half-maximal response (EC50) of 33 nM.
